Holding throughout (format): cell-based
Experiment [1] relates to porcine primary RPE cells. The experiment is described as follows: POS-induced pseudopod/contractile cup formation, pMLC and POS centring at 30 min in primary porcine RPE cells. The source says: Fixation and processing cells and mouse tissue sections was as previously described in Zihni, C. et al (2017). The following antibodies were used: RPE65 mouse monoclonal (Millipore) 1/300 for immuno-fluorescence; p-MLC S19, mouse monoclonal (Cell Signaling Technology) immunofluorescence 1/100 and immunoblotting 1/1000; Dbl(3), rabbit polyclonal (Santa Cruz Biotechnology) immunofluorescence 1/200; MRCKβ, rabbit polyclonal (Santa Cruz Biotechnology) immunofluorescence 1/200 and immunoblotting 1/500; anti-Cdc42-GTP mouse monoclonal (NewEast Biosciences) immunofluorescence 1/50; N-WASP, rabbit polyclonal (Santa Cruz Biotechnology) immunofluorescence and immunoblotting 1/1000; MerTK rabbit monoclonal (Abcam 52968) immunofluorescence 1/100; Integrin αVβ5, mouse monoclonal (Clone P1F6) (Abcam 24694) immunofluorescence 1/100; pFAK Y397, rabbit polyclonal (Invitrogen) immunofluorescence 1/100; pSrc Y416, rabbit polyclonal (Cell Signaling Technology) immunofluorescence 1/100; Phalloidin-Atto 647 reagent was obtained from Sigma and diluted 1/1000. Affinity-purified and cross-adsorbed Alexa488-, Cy3- and Cy5-labelled donkey anti-mouse, rabbit, or goat secondary antibodies were from Jackson ImmunoResearch Laboratories (1/300 diluted from 50% glycerol stocks). Affinity-purified HRP-conjugated goat anti mouse and rabbit, and donkey anti goat secondary antibodies 1/5000 were also from Jackson ImmunoResearch Laboratories (1/5000 diluted from 50% glycerol stocks). For immunofluorescence analysis cells and tissues were mounted using Prolong Gold antifade reagent (Life technologies) and imaging was performed using Zeiss 700 and 710 confocal microscopes and a 64× oil lens/NA1.4. Images were processed using Zeiss Zen 2009 and Adobe Photoshop CS5 and 10 software. Co-immunoprecipitation and immunoblotting were carried out using methods previously described and were repeated at least three times.

Experiment [2] concerns porcine primary RPE cells. Put plainly: POS phagocytosis (internalization) in primary porcine RPE cells. More on the design: ability of RPE cells to internalize POS (confocal z-sections): dose or concentration left out as unconfirmed. From the text: Wilcoxon tests also were used where indicated.
The inventors next asked whether MRCKβ is directly involved in POS internalization using porcine primary RPE cells. […] MRCK was not required for POS to attach to the RPE, indicating integrin αVβ5-POS binding was not affected (FIGS. 2b and 2f). POS binding stimulates the formation of extended pseudopods that retract with internalization of POS. […] Thus, MRCKβ controls POS-induced membrane remodelling during phagocytic cup formation and particle internalization.

The subject of another experiment is Primary porcine RPE. The experiment is described as follows: POS/Gas-6 stimulated pseudopod assembly in serum-free primary porcine RPE. Particulars: serum-free medium 4 h, 30 min stimulation with POS-FITC, with Gas-6.

Take `CN(C)C[C@H](O)Cn1c2ccc(Br)cc2c2cc(Br)ccc21` (racemic) [Wiskostatin]: the “pMLC activity/staining at pseudopods/cups” value in experiment [1] (POS for 30 minutes) is “reduced”. Also, in experiment [1] (Wiskostatin used at 5 μM), the “less F-actin in pseudopods when compared to control cells” value is given as “approx. 50%” and the “number of cells forming normal pseudopods” value is listed as “drastic reduction”.

Consider `O=C(Nc1cn[nH]c1-c1ccccn1)c1nn(C2CCNCC2)cc1Cl` [BDP5290], for which, in experiment [2] (GOLD-labelled POS, TEM), the “phagocytosis of GOLD-labelled POS (transmission electron microscopy)” value was “inhibition of phagocytosis”. In addition, the “ability of RPE cells to internalize POS (confocal z-sections)” value in experiment [2] (POS-FITC 1 h followed by 2 h chase) is on record as “strongly inhibited”. In addition, the POS-dependent pseudopod assembly entry in the experiment on Primary porcine RPE is “did not inhibit”. In experiment [1] (POS for 30 minutes), the “POS centring at pseudopods/cups” value is “un-centred POS”, the “efficiency of POS binding to RPE cells” value is reported as “unaltered” and the “pMLC activity/staining at pseudopods/cups” value is “lack pMLC activity”. Besides, the “MLC phosphorylation after blebbistatin washout” value in experiment [1] (washout of blebbistatin in the presence of the MRCK inhibitor) is on record as “inhibition of MLC phosphorylation”.

For `Cc1ccc2c(c1)C(=O)C1(O)CCN(c3ccccc3)C1=N2` (stereo not shown) [blebbistatin, Blebbistatin], the pseudopod/cup organization entry in experiment [1] (Blebbistatin used at 10 μM) is given as “disorganised pseudopods”. The “POS centring at pseudopods/cups” value in experiment [1] (POS for 30 minutes) is recorded as “loss of efficient POS centring”.

B1: Gas-6: growth arrest-specific 6, soluble protein which links MerTK to POS (protein, UniProt Q14393 31-678, looked up)
Growth arrest-specific …: ALLPAREATQFLRPRQRRAFQVFEEAKQGHLERECVEELCSREEAREVFENDPETDYFYPRYLDCINKYGSPYTKNSGFATCVQNLPDQCTPNPCDRKGTQACQDLMGNFFCLCKAGWGGRLCDKDVNECSQENGGCLQICHNKPGSFHCSCHSGFELSSDGRTCQDIDECADSEACGEARCKNLPGSYSCLCDEGFAYSSQEKACRDVDECLQGRCEQVCVNSPGSYTCHCDGRGGLKLSQDMDTCEDILPCVPFSVAKSVKSLYLGRMFSGTPVIRLRFKRLQPTRLVAEFDFRTFDPEGILLFAGGHQDSTWIVLALRAGRLELQLRYNGVGRVTSSGPVINHGMWQTISVEELARNLVIKVNRDAVMKIAVAGDLFQPERGLYHLNLTVGGIPFHEKDLVQPINPRLDGCMRSWNWLNGEDTTIQETVKVNTRMQCFSVTERGSFYPGSGFAFYSLDYMRTPLDVGTESTWEVEVVAHIRPAADTGVLFALWAPDLRAVPLSVALVDYHSTKKLKKQLVVLAVEHTALALMEIKVCDGQEHVVTVSLRDGEATLEVDGTRGQSEVSAAQLQERLAVLERHLRSPVLTFAGGLPDVPVTSAPVTAFYRGCMTLEVNRRLLDLDEAAYKHSDITAHSCPPVEPAAA
Turning to B1, in the experiment on Primary porcine RPE, the POS-dependent pseudopod assembly entry is “sharp increase”.

The record behind these values is patent US20230135501A1, “GENE THERAPY” (UCL BUSINESS LTD, priority 2020, published 2023).
